The structures appear in SMILES notation. Where two headings read alike, the source gives them in different places. A value given as a limit tells only on which side of the number the result lay.

For one assay, the system named is PC3 cells. In words: PC3 growth inhibition (Cell-titer glo, 72 hours). In kind it is cell-based. The conditions noted are these: Homo sapiens, PC-3, PC3 cells, 72 hours, Cell-titer glo, read-out: Percent Inhibition (PC3 growth inhibition); for inhibition at 1 µM: compound concentration 1 μM; for inhibition at 1.667 µM: compound concentration 1.667 μM. On the procedure:
The ability of a compound of the invention to inhibit the growth of cells can be measured using a variety of methods known in the art. For example, the ability of a compound of the invention to inhibit the growth of PC3 cells can be measured. PC3 cells can be plated and incubated overnight under CO2. For each measurement, a compound of the invention (or vehicle e.g., DMSO) can be diluted with AIM serum free medium and added to the cell plate. The cell plate can then be incubated for 72 h under CO2. Cell-titer glo solution can be added and the plates can be incubated protected from light and the amount of luminescences can be measured. Concentration response curves can be generated by calculating the luminescence increase in test compound treated samples relative to DMSO-treated controls. Percentage remaining viability values at a single concentration can be measured. Growth inhibition (GI50) or cell viability (LD50) values can be determined from those curves.
Compounds of the invention were assayed to measure PC3 growth inhibition at a concentration of 1 μM or 1.667 μM (Table 3). To measure PC3 growth inhibition, PC3 cells that were maintained in PRMI1640 growth medium (Life Technologies; Cat. No. 11875) at 37° C. under 5% CO2 are trypsinized and diluted at a density of 8×10^4 cells/ml, 25 ul per well of cells and plated in 384-well black tissue culture plate. The cells are incubated overnight at 37° C. under 5% CO2. For each measurement, a test compounds or vehicle control (DMSO) are diluted with AIM serum free medium and added to the cell plate. Incubate for 72 hours at 37° C. under 5% CO2. 25 μl Cell-titer glo solution (Promega; Cat. No. G8462) is added and the cell plates are incubated for 10 minutes protected from light. The luminescence is measured. Concentration response curves are generated by calculating the luminescence increase in test compound-treated samples relative to DMSO-treated controls. Percentage remaining viability values at a single concentration, growth inhibition (GI50) or cell viability (LD50) values are determined from those curves. One skilled in the art will appreciate that these values are subject to experimental variation.

Another assay deals with hNAMPT protein (Homo sapiens (Human), UniProt P43490). Briefly: NAMPT enzyme assay (TR-FRET/HTRF, BodiPY ligand, anti 6His-Tb). In kind it is binding. The conditions noted are these: for IC50: NAMPT IC50 range class, read-out: IC50; for inhibition at 1 µM: read-out: Percent Inhibition. The procedure, abridged: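 Compound or DMSO was incubated for 1 h at room temperature, protected from light, with BodiPY ligand and hNAMPT labelled by terbium anti-6His antibody. The 520 nm to 486 nm emission ratio after 320 nm excitation gave inhibition versus vehicle, from which concentration-response curves yielded IC50.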
Sequence of hNAMPT protein (P43490 whole entry): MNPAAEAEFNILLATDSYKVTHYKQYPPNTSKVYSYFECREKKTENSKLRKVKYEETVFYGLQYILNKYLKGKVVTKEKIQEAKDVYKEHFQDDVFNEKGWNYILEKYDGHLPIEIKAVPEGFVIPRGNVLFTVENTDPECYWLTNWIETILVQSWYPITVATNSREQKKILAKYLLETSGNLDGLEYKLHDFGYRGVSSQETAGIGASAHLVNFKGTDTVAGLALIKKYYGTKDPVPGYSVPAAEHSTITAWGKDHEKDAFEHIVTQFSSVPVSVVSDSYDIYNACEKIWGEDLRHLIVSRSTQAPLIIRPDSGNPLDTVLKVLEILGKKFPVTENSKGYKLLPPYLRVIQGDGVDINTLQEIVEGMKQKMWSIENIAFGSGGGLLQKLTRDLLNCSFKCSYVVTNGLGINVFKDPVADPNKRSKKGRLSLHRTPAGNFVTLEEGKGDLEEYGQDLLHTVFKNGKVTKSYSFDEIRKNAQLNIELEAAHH
A general note: In TR-FRET formats the signal depends on donor and acceptor labels being close together.

In general, inhibition refers to the drop in the measured response relative to a control, in per cent. As a reminder, the IC50 is the point on the concentration scale where inhibition reaches its midpoint. As for `Cn1cnc2cc(-c3nc4ccc(C(=O)NCCCn5ccnc5)cc4nc3-c3ccccc3)ccc21` [Compound I-38, N-[3-(1H-imidazol-1-yl)propyl]-2-(1-methyl-1H-benzimidazol-5-yl)-3-phenylquinoxaline-6-carboxamide], the inhibition at 1 µM was -8% in the assay on PC3 cells and 94% on hNAMPT protein (compound concentration 1 μM). Further, the IC50 on hNAMPT protein was under 100 nM.
Take `O=C(NCCCc1ncc[nH]1)c1ccc2nc(N3CCOCC3)c(-c3ccc(F)cc3)nc2c1` [Compound I-39, 3-(4-fluorophenyl)-N-[3-(1H-imidazol-2-yl)propyl]-2-(morpholin-4-yl)quinoxaline-6-carboxamide]: the inhibition at 1.667 µM in the assay with PC3 cells turned out to be 2%. Also, the IC50 on hNAMPT protein is under 100 nM. In addition, the inhibition at 1 µM on hNAMPT protein (compound concentration 1 μM) was determined as 97%.
On to `O=C(NCCCn1ccnc1)c1ccc2nc(-c3ccccc3)c(-c3cncnc3)nc2c1` [Compound I-41, N-[3-(1H-imidazol-1-yl)propyl]-2-phenyl-3-(pyrimidin-5-yl)quinoxaline-6-carboxamide], for which the inhibition at 1 µM in the assay with PC3 cells came out at 5%; on hNAMPT protein (compound concentration 1 μM), 17%. For the same compound, at hNAMPT protein, the IC50 lay within 2000 to 10000 nM.
Consider `O=C(NCCCc1nccs1)c1ccc2nc(N3CCC(N4CCOCC4)CC3)c(-c3ccc(F)cc3)nc2c1` [Compound I-42, 3-(4-fluorophenyl)-2-[4-(morpholin-4-yl)piperidin-1-yl]-N-[3-(1,3-thiazol-2-yl)propyl]quinoxaline-6-carboxamide], for which the inhibition at 1.667 µM in the assay on PC3 cells was over 99%. The IC50 at hNAMPT protein was under 100 nM. Also, on hNAMPT protein (compound concentration 1 μM), the inhibition at 1 µM is 96%.
For the compound `O=C(NCCc1ccc2[nH]cnc2c1)c1ccc2nc(-c3ccc(F)cc3)c(-c3ccc(F)cc3)nc2c1` [Compound I-43, N-[2-(1H-benzimidazol-5-yl)ethyl]-2,3-bis(4-fluorophenyl)quinoxaline-6-carboxamide], the inhibition at 1 µM in the assay with PC3 cells was determined as 16%; on hNAMPT protein (compound concentration 1 μM) it was 23%. For the same compound, the IC50 on hNAMPT protein lay within 2000 to 10000 nM.
Turning to `O=C(NCCCc1ncc[nH]1)c1ccc2nc(N3CCC(N4CCOCC4)CC3)c(-c3cccs3)nc2c1` [Compound I-44, N-[3-(1H-imidazol-2-yl)propyl]-2-[4-(morpholin-4-yl)piperidin-1-yl]-3-(2-thienyl)quinoxaline-6-carboxamide], the inhibition at 1.667 µM with PC3 cells was 33%. In addition, the IC50 on hNAMPT protein was under 100 nM. Moreover, the inhibition at 1 µM at hNAMPT protein (compound concentration 1 μM) is over 99%.
For `O=C(NCCCn1ccnc1)c1ccc2nc(-c3ccc(Cl)cc3)c(-c3ccccc3)nc2c1` [Compound I-45, 2-(4-chlorophenyl)-N-[3-(1H-imidazol-1-yl)propyl]-3-phenylquinoxaline-6-carboxamide], the inhibition at 1 µM was -6% in the assay on PC3 cells and 50% on hNAMPT protein (compound concentration 1 μM). In addition, the IC50 on hNAMPT protein lay within 100 to 500 nM.
As to `COc1cccc(-c2nc3cc(C(=O)NCCCc4cccnc4)ccc3nc2N2CCC(O)CC2)c1` [Compound I-46, 2-(4-hydroxypiperidin-1-yl)-3-(3-methoxyphenyl)-N-[3-(pyridin-3-yl)propyl]quinoxaline-6-carboxamide], the inhibition at 1.852 µM in the assay on PC3 cells (compound concentration 1.852 μM) stood at 2%. Also, at hNAMPT protein, the IC50 was under 100 nM. For the same compound, the inhibition at 1 µM on hNAMPT protein (compound concentration 1 μM) was found to be 98%.
As to `O=C(NCCCc1ccnnc1)c1ccc2nc(N3CCOCC3)c(-c3ccc(F)cc3)nc2c1` [Compound I-47, 3-(4-Fluorophenyl)-2-(morpholin-4-yl)-N-[3-(pyridazin-4-yl)propyl]quinoxaline-6-carboxamide], the inhibition at 1.667 µM with PC3 cells was determined as 33%. Moreover, at hNAMPT protein, the IC50 was under 100 nM and the inhibition at 1 µM worked out at 90%.
On to `CS(=O)(=O)Nc1cccc(-c2nc3cc(C(=O)NCCCn4ccnc4)ccc3nc2-c2ccccc2)c1` [Compound I-48, N-[3-(1H-imidazol-1-yl)propyl]-3-{3-[(methylsulfonyl)amino]phenyl}-2-phenylquinoxaline-6-carboxamide], for which the inhibition at 1 µM with PC3 cells stood at 1%; at hNAMPT protein (compound concentration 1 μM) it was 87%. In addition, the IC50 at hNAMPT protein is 100 to 500 nM.
In the same order, the values of `O=C(NCCCn1ccnc1)c1ccc2nc(-c3cn[nH]c3)c(-c3ccccc3)nc2c1` [Compound I-49, N-[3-(1H-imidazol-1-yl)propyl]-3-phenyl-2-(1H-pyrazol-4-yl)quinoxaline-6-carboxamide] are 8%, 56% and 500 to 1000 nM.
In the case of `O=C(NCCCc1ncc[nH]1)c1ccc2nc(Cl)c(-c3ccc(Cl)cc3)nc2c1` [Compound I-50, 2-chloro-3-(4-chlorophenyl)-N-[3-(1H-imidazol-2-yl)propyl]quinoxaline-6-carboxamide], in the assay on PC3 cells, the inhibition at 1.667 µM was determined as 96%. For the same compound, the IC50 at hNAMPT protein is under 100 nM. Besides, on hNAMPT protein (compound concentration 1 μM), the inhibition at 1 µM stood at 87%.
In the case of `CC(=O)N1CCN(c2nc3ccc(C(=O)NCCCn4ccnc4)cc3nc2-c2ccccc2)CC1` [Compound I-51, 2-(4-acetylpiperazin-1-yl)-N-[3-(1H-imidazol-1-yl)propyl]-3-phenylquinoxaline-6-carboxamide], the inhibition at 1 µM is -7% in the assay with PC3 cells and 81% on hNAMPT protein (compound concentration 1 μM). Besides, at hNAMPT protein, the IC50 fell in the range of 100 to 500 nM.
In the same order, the values of `COc1cccc(-c2nc3ccc(C(=O)NCCCn4ccnc4)cc3nc2-c2cccc(OC)c2)c1` [Compound I-52, N-[3-(1H-imidazol-1-yl)propyl]-2,3-bis(3-methoxyphenyl)quinoxaline-6-carboxamide] are 0%, 103% and under 100 nM.
Consider `Cn1cncc1CCNC(=O)c1ccc2nc(-c3ccc(F)cc3)c(-c3ccc(F)cc3)nc2c1` [Compound I-53, 2,3-bis(4-fluorophenyl)-N-[2-(1-methyl-1H-imidazol-5-yl)ethyl]quinoxaline-6-carboxamide], for which the values for the inhibition at 1 µM in the assay on PC3 cells and at hNAMPT protein (compound concentration 1 μM) were -6% and 77%, respectively. Also, the IC50 at hNAMPT protein lay in the range of 100 to 500 nM.
In the same order, the values of `N#Cc1ccccc1-c1nc2ccc(C(=O)NCCCn3ccnc3)cc2nc1-c1ccccc1` [Compound I-54, 2-(2-cyanophenyl)-N-[3-(1H-imidazol-1-yl)propyl]-3-phenylquinoxaline-6-carboxamide] are -7%, 50% and 500 to 1000 nM.
In the case of `COc1cccc(-c2nc3cc(C(=O)NCCCn4ccnc4)ccc3nc2N2CCOCC2)c1` [Compound I-55, N-[3-(1H-imidazol-1-yl)propyl]-3-(3-methoxyphenyl)-2-(morpholin-4-yl)quinoxaline-6-carboxamide], the inhibition at 1 µM was -7% in the assay on PC3 cells and 102% on hNAMPT protein (compound concentration 1 μM). In addition, the IC50 at hNAMPT protein is under 100 nM.
In the same order, the values of `O=C(c1ccc2nc(-c3ccc(F)cc3)c(-c3ccc(F)cc3)nc2c1)N1CCn2ccnc2C1` [Compound I-56, [2,3-bis(4-fluorophenyl)quinoxalin-6-yl](5,6-dihydroimidazo[1,2-a]pyrazin-7(8H)-yl)methanone] are 104%, 33% and 2000 to 10000 nM.
On to `Cc1nccn1CCCNC(=O)c1ccc2nc(-c3ccc(F)cc3)c(-c3ccc(F)cc3)nc2c1` [Compound I-57, 2,3-bis(4-fluorophenyl)-N-[3-(2-methyl-1H-imidazol-1-yl)propyl]quinoxaline-6-carboxamide], for which the values for the inhibition at 1 µM in the assay with PC3 cells and on hNAMPT protein (compound concentration 1 μM) were 45% and 96%, respectively. In addition, the IC50 on hNAMPT protein is under 100 nM.
As to `CN(C)c1nc2ccc(C(=O)NCCc3cncn3C)cc2nc1-c1ccc(F)cc1` [Compound I-58, 2-(dimethylamino)-3-(4-fluorophenyl)-N-[2-(1-methyl-1H-imidazol-5-yl)ethyl]quinoxaline-6-carboxamide], the inhibition at 1.667 µM with PC3 cells came to 50%. Besides, on hNAMPT protein, the IC50 lay within 500 to 1000 nM. In addition, the inhibition at 1 µM at hNAMPT protein (compound concentration 1 μM) is 64%.
For the compound `COC1CN(c2nc3ccc(C(=O)NCCCn4ccnc4)cc3nc2-c2ccccc2)C1` [Compound I-59, N-[3-(1H-imidazol-1-yl)propyl]-2-(3-methoxyazetidin-1-yl)-3-phenylquinoxaline-6-carboxamide], the inhibition at 1 µM is -6% with PC3 cells and 49% at hNAMPT protein (compound concentration 1 μM). In addition, the IC50 on hNAMPT protein lay within 1000 to 2000 nM.
In the same order, the values of `O=C(NCCCn1ccnc1)c1ccc2nc(-c3ccsc3)c(-c3ccccc3)nc2c1` [Compound I-60, N-[3-(1H-imidazol-1-yl)propyl]-3-phenyl-2-(3-thienyl)quinoxaline-6-carboxamide] are -4%, 51% and 500 to 1000 nM.

Values taken from US10144742B2 (Millennium Pharmaceuticals, Inc., priority 2014, dated 2018).
